In patent publication US12077503B2, “Substituted cyclic amides and their use as herbicides” (FMC CORPORATION, priority 2015, dated 2024):

How the values were obtained:
Type in all cases: in vivo
[1] = test system: giant foxtail (Setaria faberii); experiment: Test A preemergence; settings: Setaria faberi, pre-emergence, 240 h, preemergence, 0 to 100 scale where 0 is no effect and 100 is complete control, read-out: Foxtail, Giant plant response rating; for pest or weed control at 125 g/ha: 125 g ai/ha, approx. 10 d; for pest or weed control at 500 g/ha: 500 g ai/ha
How it was run: (§1)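 Preemergence directed soil spray on seeded pots, or postemergence application to plants 2–10 cm, one- to two-leaf. Solvent mixture non-phytotoxic, with surfactant. Scored ~10 d later, visually, 0–100 vs untreated.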

[2] = test system: Galium (catchweed bedstraw, Galium aparine); experiment: Test A postemergence; settings: Galium, post-emergence, 240 h, postemergence; for pest or weed control at 125 g/ha: 125 g ai/ha, visual injury vs untreated controls after approx. 10 d, 0 = no effect, 100 = complete control, read-out: Galium plant response rating (0 to 100 scale); for pest or weed control at 500 g/ha: 500 g ai/ha, 0 to 100 scale, 0 is no effect, 100 is complete control, read-out: Galium plant response rating
How it was run: as §1

Kochia (Kochia scoparia) = experiment: Test A postemergence; settings: Bassia scoparia, post-emergence, 240 h, postemergence; for pest or weed control at 125 g/ha: 125 g ai/ha, visual injury vs untreated controls after approx. 10 d, 0 = no effect, 100 = complete control, read-out: Kochia plant response rating (0 to 100 scale); for pest or weed control at 500 g/ha: 500 g ai/ha, 0 to 100 scale, 0 is no effect, 100 is complete control, read-out: Kochia plant response rating
How it was run: as §1

[3] = test system: barnyardgrass (Echinochloa crus-galli); experiment: Test A postemergence; settings: Echinochloa crus-galli, post-emergence, 240 h, postemergence; for pest or weed control at 125 g/ha: 125 g ai/ha, visual injury vs untreated controls after approx. 10 d, 0 = no effect, 100 = complete control, read-out: Barnyardgrass plant response rating (0 to 100 scale); for pest or weed control at 500 g/ha: 500 g ai/ha, 0 to 100 scale, 0 is no effect, 100 is complete control, read-out: Barnyardgrass plant response rating
How it was run: as §1

[4] = test system: blackgrass (Alopecurus myosuroides); experiment: Test A postemergence; settings: Alopecurus myosuroides, post-emergence, 240 h, postemergence; for pest or weed control at 125 g/ha: 125 g ai/ha, visual injury vs untreated controls after approx. 10 d, 0 = no effect, 100 = complete control, read-out: Blackgrass plant response rating (0 to 100 scale); for pest or weed control at 500 g/ha: 500 g ai/ha, 0 to 100 scale, 0 is no effect, 100 is complete control, read-out: Blackgrass plant response rating
How it was run: as §1

corn (Zea mays) = experiment: Test A postemergence; settings: Zea mays, post-emergence, 240 h, postemergence; for plant injury at 125 g/ha: 125 g ai/ha, visual injury vs untreated controls after approx. 10 d, 0 = no effect, 100 = complete control, read-out: Corn plant response rating (0 to 100 scale); for plant injury at 500 g/ha: 500 g ai/ha, 0 to 100 scale, 0 is no effect, 100 is complete control, read-out: Corn plant response rating
How it was run: as §1

[5] = test system: giant foxtail (Setaria faberii); experiment: Test A postemergence; settings: Setaria faberi, post-emergence, 240 h, postemergence; for pest or weed control at 125 g/ha: 125 g ai/ha, visual injury vs untreated controls after approx. 10 d, 0 = no effect, 100 = complete control, read-out: Foxtail, Giant plant response rating (0 to 100 scale); for pest or weed control at 500 g/ha: 500 g ai/ha, 0 to 100 scale, 0 is no effect, 100 is complete control, read-out: Foxtail, Giant plant response rating
How it was run: as §1

[6] = test system: pigweed (Amaranthus retroflexus); experiment: Test A postemergence; settings: Amaranthus retroflexus, post-emergence, 240 h, postemergence; for pest or weed control at 125 g/ha: 125 g ai/ha, visual injury vs untreated controls after approx. 10 d, 0 = no effect, 100 = complete control, read-out: Pigweed plant response rating (0 to 100 scale); for pest or weed control at 500 g/ha: 500 g ai/ha, 0 to 100 scale, 0 is no effect, 100 is complete control, read-out: Pigweed plant response rating
How it was run: as §1

[7] = test system: ragweed (common ragweed, Ambrosia elatior); experiment: Test A postemergence; settings: Ambrosia artemisiifolia, post-emergence, 240 h, postemergence; for pest or weed control at 125 g/ha: 125 g ai/ha, visual injury vs untreated controls after approx. 10 d, 0 = no effect, 100 = complete control, read-out: Ragweed plant response rating (0 to 100 scale); for pest or weed control at 500 g/ha: 500 g ai/ha, 0 to 100 scale, 0 is no effect, 100 is complete control, read-out: Ragweed plant response rating
How it was run: as §1

[8] = test system: ryegrass, Italian (Italian ryegrass, Lolium multiflorum); experiment: Test A postemergence; settings: Lolium multiflorum, post-emergence, 240 h, postemergence; for pest or weed control at 125 g/ha: 125 g ai/ha, visual injury vs untreated controls after approx. 10 d, 0 = no effect, 100 = complete control, read-out: Ryegrass, Italian plant response rating (0 to 100 scale); for pest or weed control at 500 g/ha: 500 g ai/ha, 0 to 100 scale, 0 is no effect, 100 is complete control, read-out: Ryegrass, Italian plant response rating
How it was run: as §1

[9] = test system: wheat (Triticum aestivum); experiment: Test A postemergence; settings: Triticum aestivum, post-emergence, 240 h, postemergence; for plant injury at 125 g/ha: 125 g ai/ha, visual injury vs untreated controls after approx. 10 d, 0 = no effect, 100 = complete control, read-out: Wheat plant response rating (0 to 100 scale); for plant injury at 500 g/ha: 500 g ai/ha, 0 to 100 scale, 0 is no effect, 100 is complete control, read-out: Wheat plant response rating
How it was run: as §1

[10] = test system: barnyardgrass (Echinochloa crus-galli); experiment: Test B flooded paddy test; settings: Echinochloa crus-galli, 250 g ai/ha, Flood; 0 to 100 scale where 0 is no effect and 100 is complete control; read-out: Barnyardgrass plant response rating
How it was run: (§2)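 Evaluation by eye, against controls, occurred 13–15 d post-treatment in a greenhouse, using a 0 (no effect) to 100 (complete control) scale. Application was into the paddy water, 3 cm deep over the soil, on 2-leaf plants.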

[11] = test system: ducksalad (Heteranthera limosa); experiment: Test B flooded paddy test; settings: Heteranthera limosa, 250 g ai/ha, Flood; 0 to 100 scale where 0 is no effect and 100 is complete control; read-out: Ducksalad plant response rating
How it was run: as §2

rice (Oryra sativa) = experiment: Test B flooded paddy test; settings: Oryza sativa, 250 g ai/ha, Flood; 0 to 100 scale where 0 is no effect and 100 is complete control; read-out: Rice plant response rating
How it was run: as §2

[12] = test system: sedge, umbrella (small-flower umbrella sedge, Cyperus difformis); experiment: Test B flooded paddy test; settings: Cyperus difformis, 250 g ai/ha, Flood; 0 to 100 scale where 0 is no effect and 100 is complete control; read-out: Sedge, Umbrella plant response rating
How it was run: as §2

SMILES: CCc1cc([C@H]2CN(C)C(=O)[C@@H]2C(=O)Nc2cccc(F)c2F)cs1 [Compound 1157]
- pest or weed control at 125 g/ha [1]: 90%
- pest or weed control at 500 g/ha [1]: 100%
- pest or weed control at 125 g/ha [2]: 50%
- pest or weed control at 500 g/ha [2]: 60%
- pest or weed control at 125 g/ha (Kochia (Kochia scoparia)): 0%
- pest or weed control at 500 g/ha (Kochia (Kochia scoparia)): 50%
- pest or weed control at 125 g/ha [3]: 90%
- pest or weed control at 500 g/ha [3]: 90%
- pest or weed control at 125 g/ha [4]: 0%
- pest or weed control at 500 g/ha [4]: 50%
- plant injury at 125 g/ha (corn (Zea mays)): 40%
- plant injury at 500 g/ha (corn (Zea mays)): 50%
- pest or weed control at 125 g/ha [5]: 90%
- pest or weed control at 500 g/ha [5]: 90%
- pest or weed control at 125 g/ha [6]: 0%
- pest or weed control at 500 g/ha [6]: 0%
- pest or weed control at 125 g/ha [7]: 0%
- pest or weed control at 500 g/ha [7]: 50%
- pest or weed control at 125 g/ha [8]: 0%
- pest or weed control at 500 g/ha [8]: 40%
- plant injury at 125 g/ha [9]: 30%
- plant injury at 500 g/ha [9]: 70%
- pest or weed control at 250 g/ha [10]: 55%
- pest or weed control at 250 g/ha [11]: 98%
- pest or weed control at 250 g/ha (rice (Oryra sativa)): 0%
- pest or weed control at 250 g/ha [12]: 0%

SMILES: CN1CC[C@H](c2cccc(C(F)(F)F)c2)[C@@H](C(=O)Nc2cccc(F)c2Cl)C1=O [Compound 1158]
- pest or weed control at 125 g/ha [1]: 100%
- pest or weed control at 500 g/ha [1]: 100%
- pest or weed control at 125 g/ha [2]: 20%
- pest or weed control at 500 g/ha [2]: 30%
- pest or weed control at 125 g/ha (Kochia (Kochia scoparia)): 0%
- pest or weed control at 500 g/ha (Kochia (Kochia scoparia)): 0%
- pest or weed control at 125 g/ha [3]: 90%
- pest or weed control at 500 g/ha [3]: 90%
- pest or weed control at 125 g/ha [4]: 20%
- pest or weed control at 500 g/ha [4]: 40%
- plant injury at 125 g/ha (corn (Zea mays)): 20%
- plant injury at 500 g/ha (corn (Zea mays)): 60%
- pest or weed control at 125 g/ha [5]: 80%
- pest or weed control at 500 g/ha [5]: 80%
- pest or weed control at 125 g/ha [6]: 0%
- pest or weed control at 500 g/ha [6]: 0%
- pest or weed control at 125 g/ha [7]: 0%
- pest or weed control at 500 g/ha [7]: 0%
- pest or weed control at 125 g/ha [8]: 30%
- pest or weed control at 500 g/ha [8]: 50%
- plant injury at 125 g/ha [9]: 30%
- plant injury at 500 g/ha [9]: 50%
- pest or weed control at 250 g/ha [10]: 60%
- pest or weed control at 250 g/ha [11]: 80%
- pest or weed control at 250 g/ha (rice (Oryra sativa)): 0%
- pest or weed control at 250 g/ha [12]: 0%

SMILES: O=C1NC[C@H](c2cccc(I)c2)[C@H]1C(=O)Nc1ccccc1F [Compound 1160]
- pest or weed control at 125 g/ha [1]: 90%
- pest or weed control at 500 g/ha [1]: 90%
- pest or weed control at 125 g/ha [2]: 0%
- pest or weed control at 500 g/ha [2]: 60%
- pest or weed control at 125 g/ha (Kochia (Kochia scoparia)): 0%
- pest or weed control at 500 g/ha (Kochia (Kochia scoparia)): 20%
- pest or weed control at 125 g/ha [3]: 80%
- pest or weed control at 500 g/ha [3]: 90%
- pest or weed control at 125 g/ha [4]: 0%
- pest or weed control at 500 g/ha [4]: 50%
- plant injury at 125 g/ha (corn (Zea mays)): 40%
- plant injury at 500 g/ha (corn (Zea mays)): 80%
- pest or weed control at 125 g/ha [5]: 80%
- pest or weed control at 500 g/ha [5]: 90%
- pest or weed control at 125 g/ha [6]: 0%
- pest or weed control at 500 g/ha [6]: 0%
- pest or weed control at 125 g/ha [7]: 0%
- pest or weed control at 500 g/ha [7]: 0%
- pest or weed control at 125 g/ha [8]: 20%
- pest or weed control at 500 g/ha [8]: 20%
- plant injury at 125 g/ha [9]: 20%
- plant injury at 500 g/ha [9]: 50%
- pest or weed control at 250 g/ha [10]: 0%
- pest or weed control at 250 g/ha [11]: 80%
- pest or weed control at 250 g/ha (rice (Oryra sativa)): 20%
- pest or weed control at 250 g/ha [12]: 0%
